The values that follow come from publication PMC11483813, “Bombesin-Targeted Delivery of β-Carboline-Based Ir(III) and Ru(II) Photosensitizers for a Selective Photodynamic Therapy of Prostate Cancer” (Inorganic Chemistry, 2024).

The test deals with PC-3 cells. As to the kind of experiment: Apoptosis assay, annexin V/propidium iodide. It counts as cell-based, human. As to conditions: five times IC50,light, photoactivated, 24 h. Here is the method: Mitochondria play an important role in the regulation of apoptosis. Alterations in the MMP can cause the release of apoptotic factors, such as cytochrome c, which activates the caspase cascade, leading to programmed cell death.[66],[67] In order to elucidate whether the toxic effect of the compounds at the mitochondrial level triggers cell death by apoptosis, a dual annexin V/propidium iodide labeling experiment was performed. The initial stages of apoptosis are characterized by alterations in the symmetry of phospholipids in the cytoplasmic membrane, which can be detected using annexin V (An). The late stages also include disruption of the cell membrane, permitting the penetration of propidium iodide (PrI), which emits red fluorescence when bound to DNA. […]
Figure 13 Cell death mechanism. […] After 24 h, the percentage of viable, necrotic, early apoptotic, and late apoptotic cells was analyzed by flow cytometry using propidium iodide and annexin V staining. […]
PC-3 cells were seeded into 12-well plates at a density of 100000 cells/well. […] The samples were immediately analyzed using a Novocyte flow cytometer. Annexin-FITC staining was detected at a wavelength of 520 nm, and propidium iodide was detected at 617 nm. The fluorescence emission of 10000 cells per sample was measured, and the percentages of live, early apoptotic, late apoptotic, and necrotic cell populations were determined.

With `COC(=O)/C=C/c1ccc(-c2nccc3c4ccccc4n(C)c23)nc1.[Cl-].[Ir+3].[c-]1ccccc1-c1ccccn1.[c-]1ccccc1-c1ccccn1` [Ir-Me], the “cells in early apoptosis” value was 11.9% and the “cells in late apoptosis” value worked out at 41.7%.
